# Data from patent US6737383B1, “Herbicidal oxadiazolidines” (priority 1999, dated 2004).
# Experiments:
# [1] = test system: blackgrass; experiment: Test B pre/postemergence blackgrass; type: in vivo, Alopecurus myosuroides
# Method in brief: (§1)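 Response is a visual 0-to-10 score relative to untreated plants, where 0 means no effect and 10 means complete control, taken twelve to sixteen days after application. Treatments went onto soil at planting and onto foliage of 1- to 4-leaf plants, using a surfactant-containing non-phytotoxic solvent.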
# [2] = test system: Italian ryegrass; experiment: Test E Italian ryegrass; type: in vivo, Lolium multiflorum; conditions: Preemergence
# [3] = test system: winter wheat; experiment: Test E winter wheat; type: in vivo, Triticum aestivum; conditions: Preemergence
# [4] = test system: bamyardgrass; experiment: Test B flood test barnyardgrass; type: in vivo, Echinochloa crus-galli
# Method in brief: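 Read-out is a visual response score from 0 (no effect) to 10 (complete control), assigned by comparison with untreated controls. Treatment was applied at the 2-leaf stage, and plants stayed in the greenhouse for twelve to sixteen days before scoring.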
# [5] = test system: surinam grass; experiment: Test B pre/postemergence surinam grass; type: in vivo, Brachiaria decumbens
# Method in brief: as §1
# [6] = test system: green foxtail; experiment: Test E green foxtail; type: in vivo, Setaria viridis; conditions: Preemergence
# [7] = test system: sugar beet; experiment: Test B pre/postemergence sugar beet; type: in vivo, Beta vulgaris; conditions: for Sugarbeets plant response rating (0 to 10 scale): 0 is no effect
# Method in brief: as §1
# [8] = test system: winter wheat; experiment: Test E winter wheat; type: in vivo, Triticum aestivum; conditions: Postemergence
# Method in brief: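 Compounds formulated in non-phytotoxic solvent mixture with surfactant; for postemergence, sprayed on plants at 1- to 4-leaf stage grown in 60:40 sandy loam/greenhouse potting mix. Kept in greenhouse ~21 to 28 days, then visually rated against untreated controls.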
# [9] = test system: blackgrass; experiment: Test E blackgrass; type: in vivo, Alopecurus myosuroides; conditions: Preemergence
# [10] = test system: winter barley; experiment: Test E winter barley; type: in vivo, Hordeum vulgare; conditions: Preemergence
# [11] = test system: wild oat; experiment: Test E wild oat; type: in vivo, Avena fatua; conditions: Preemergence
# [12] = Postemergence, Rate 125 g/ha, scale of 0 to 10 where 0 is no effect and 10 is complete control
# [13] = Postemergence, Rate 250 g/ha, scale 0 to 10, 0 no effect, 10 complete control
# [14] = Preemergence, Rate 62 g/ha, scale 0 to 10 (0 no effect, 10 complete control)
# [15] = Preemergence, Rate 125 g/ha, scale 0 to 10 (0 no effect, 10 complete control)
# [16] = Preemergence, Rate 250 g/ha, scale of 0 to 10 where 0 is no effect and 10 is complete control
# [17] = Preemergence, Rate 500 g/ha, scale 0 to 10 (0 no effect, 10 complete control)
# [18] = Rate 62 g/ha, Postemergence, scale of 0 to 10 where 0 is no effect and 10 is complete control
# [19] = Rate 500 g/ha, Postemergence, scale 0 to 10, 0 no effect, 10 complete control
# [20] = Rate 62 g/ha, 0 to 100 scale, 0 no effect, 100 complete control
# [21] = Rate 125 g/ha, 0 to 100 scale (0 no effect, 100 complete control)
# [22] = Postemergence, Rate 62 g/ha, scale 0 to 10, 0 is no effect, 10 is complete control
# [23] = Preemergence, Rate 125 g/ha, 10 is complete control
# [24] = Rate 250 g/ha, Postemergence, scale 0 to 10, 0 is no effect, 10 is complete control
# [25] = Preemergence, Rate 62 g/ha, scale of 0 to 10 where 0 is no effect and 10 is complete control
# [26] = Preemergence, Rate 125 g/ha, 0 is no effect, 10 is complete control
# [27] = Rate 500 g/ha, Postemergence, scale 0 to 10
# [28] = Rate 500 g/ha, 0 to 100 scale where 0 is no effect and 100 is complete control
# [29] = Preemergence, Rate 250 g/ha, scale 0 to 10, 0 is no effect, 10 is complete control
smiles,measurement,setting,value
CC(C)N(C(=O)n1oc(=O)n(C(C)C)c1=O)c1ccccc1 [Compound 113],Blackgrass plant response rating,[1]; [12],8
same,Blackgrass plant response rating,[1]; [13],8
same,Blackgrass plant response rating,[1]; [14],8
same,"Plant response rating, Blackgrass",[1]; [15],9
same,"Plant response rating, Blackgrass",[1]; [16],10
same,Blackgrass plant response rating,[1]; [17],10
same,Blackgrass plant response rating,[1]; [18],8
same,Blackgrass plant response rating,[1]; [19],8
same,"Plant response rating, I. Ryegrass",[2]; [20],50
same,"Plant response rating, I. Ryegrass",[2]; [21],50
same,"Plant response rating, I. Ryegrass","[2]; Rate 250 g/ha, 0 to 100 scale",100
same,"Plant response rating, Wheat (winter)",[3]; [20],40
same,"Plant response rating, Wheat (winter)",[3]; [21],50
same,"Plant response rating, Wheat (winter)","[3]; Rate 250 g/ha, 0 to 100 scale",60
same,Barnyardgrass plant response rating,[4]; [22],0
same,Barnyardgrass plant response rating,"[4]; Rate 125 g/ha, Postemergence section (flood test species), scale 0 to 10, 0 no effect, 10 complete control",0
same,Barnyardgrass plant response rating,"[4]; Rate 250 g/ha, headed Pre-emergence (flood test species), scale 0 to 10 (0 no effect, 10 complete control)",0
same,"Plant response rating, Barnyardgrass","[4]; Rate 500 g/ha, headed Pre-emergence (flood test species), scale 0 to 10 (0 no effect, 10 complete control)",0
same,Barnyardgrass plant response rating,"[4]; Rate 500 g/ha, listed under Postemergence (flood test species), scale 0 to 10, 0 no effect, 10 complete control",0
same,Barnyardgrass plant response rating,"[4]; Rate 1000 g/ha, Pre-emergence (as headed), scale 0 to 10",0
same,Barnyardgrass plant response rating,"[4]; Rate 2000 g/ha, Pre-emergence (as headed), scale 0 to 10, 0 no effect, 10 complete control",9
same,Barnyardgrass plant response rating,"[4]; flood test, listed under Postemergence, Rate 250 g/ha, scale 0 to 10, 0 no effect, 10 complete control",0
same,B. signalgrass plant response rating,[5]; [22],4
same,B. signalgrass plant response rating,[5]; [13],8
same,B. signalgrass plant response rating,[5]; [14],7
same,"Plant response rating, B. signalgrass",[5]; [15],9
same,"Plant response rating, B. signalgrass",[5]; [16],10
same,B. signalgrass plant response rating,[5]; [17],10
same,B. signalgrass plant response rating,"[5]; Rate 125 g/ha, Postemergence, scale 0 to 10, 0 no effect, 10 complete control",7
same,B. signalgrass plant response rating,"[5]; Rate 500 g/ha, Postemergence, scale of 0 to 10 where 0 is no effect and 10 is complete control",8
same,"Plant response rating, Green foxtail",[6]; [20],55
same,"Plant response rating, Green foxtail",[6]; [21],70
same,"Plant response rating, Green foxtail","[6]; Rate 250 g/ha, 0 to 100 scale",85
same,Sugarbeets plant response rating,[7]; [12],4
same,Sugarbeets plant response rating,[7]; [14],7
same,Sugarbeets plant response rating (0 to 10 scale),[7]; [23],8
same,"Plant response rating, Sugarbeets",[7]; [16],9
same,Sugarbeets plant response rating,[7]; [17],10
same,Sugarbeets plant response rating,[7]; [18],4
same,"Plant response rating, Sugarbeets",[7]; [24],5
same,Sugarbeets plant response rating,[7]; [19],6
same,"Plant response rating, Wheat (winter)","[8]; Rate 62 g/ha, 0 to 100 scale",15
same,"Plant response rating, Wheat (winter)","[8]; Rate 125 g/ha, 0 to 100 scale",30
same,"Plant response rating, Wheat (winter)","[8]; Rate 250 g/ha, 0 to 100 scale (0 no effect, 100 complete control)",70
same,"Plant response rating, Blackgrass",[9]; [20],60
same,"Plant response rating, Blackgrass",[9]; [21],30
same,"Plant response rating, Blackgrass","[9]; Rate 250 g/ha, 0 to 100 scale",85
same,"Plant response rating, Barley (winter)",[10]; [20],10
same,"Plant response rating, Barley (winter)",[10]; [21],10
same,"Plant response rating, Barley (winter)","[10]; Rate 250 g/ha, 0 to 100 scale",85
same,"Plant response rating, Wild oat",[11]; [20],20
same,"Plant response rating, Wild oat",[11]; [21],30
Cc1nsc(C)c1-n1c(=O)on(C(=O)N(c2ccc(F)cc2F)C(C)C)c1=O [Compound 158],Blackgrass plant response rating,[1]; [12],1
same,Blackgrass plant response rating,[1]; [25],0
same,Blackgrass plant response rating (0 to 10 scale),[1]; [26],0
same,Blackgrass plant response rating,[1]; [17],3
same,Blackgrass plant response rating,[1]; [18],1
same,"Plant response rating, Blackgrass",[1]; [24],2
same,Blackgrass plant response rating,[1]; [27],5
same,"Plant response rating, I. Ryegrass",[2]; [20],10
same,"Plant response rating, I. Ryegrass",[2]; [21],20
same,I. Ryegrass plant response rating (0 to 100 scale),[2]; Rate 250 g/ha,50
same,"Plant response rating, I. Ryegrass",[2]; [28],50
same,"Plant response rating, Wheat (winter)",[3]; [20],0
same,"Plant response rating, Wheat (winter)",[3]; [21],10
same,Wheat (winter) plant response rating (0 to 100 scale),[3]; Rate 250 g/ha,30
same,Barnyardgrass plant response rating,"[4]; Postemergence (flood test species), Rate 125 g/ha, scale of 0 to 10 where 0 is no effect and 10 is complete control",0
same,Barnyardgrass plant response rating,"[4]; Rate 62 g/ha, Postemergence section, flood test species, scale of 0 to 10 where 0 is no effect and 10 is complete control",0
same,"Plant response rating, Barnyardgrass","[4]; Rate 250 g/ha, Postemergence (flood test), scale 0 to 10, 0 is no effect, 10 is complete control",0
same,Barnyardgrass plant response rating,"[4]; Rate 500 g/ha, listed under Postemergence (flood test species), scale 0 to 10",0
same,B. signalgrass plant response rating,[5]; [12],0
same,B. signalgrass plant response rating,[5]; [25],0
same,B. signalgrass plant response rating (0 to 10 scale),[5]; [26],0
same,B. signalgrass plant response rating,[5]; [29],0
same,B. signalgrass plant response rating,[5]; [17],0
same,B. signalgrass plant response rating,[5]; [18],0
same,"Plant response rating, B. signalgrass",[5]; [24],0
same,B. signalgrass plant response rating,[5]; [19],0
same,"Plant response rating, Green foxtail",[6]; [20],0
same,"Plant response rating, Green foxtail",[6]; [21],10
same,Green foxtail plant response rating (0 to 100 scale),[6]; Rate 250 g/ha,20
same,"Plant response rating, Green foxtail",[6]; [28],50
same,Sugarbeets plant response rating,[7]; [12],0
same,Sugarbeets plant response rating,[7]; [25],0
same,Sugarbeets plant response rating (0 to 10 scale),[7]; [23],0
same,Sugarbeets plant response rating,[7]; [29],0
same,Sugarbeets plant response rating,[7]; [17],0
same,Sugarbeets plant response rating,[7]; [18],0
same,"Plant response rating, Sugarbeets",[7]; [24],0
same,Sugarbeets plant response rating,[7]; [27],0
same,"Plant response rating, Wheat (winter)","[8]; Rate 62 g/ha, 0 to 100 scale",10
same,"Plant response rating, Wheat (winter)","[8]; Rate 125 g/ha, 0 to 100 scale",15
same,"Plant response rating, Wheat (winter)","[8]; Rate 500 g/ha, 0 to 100 scale, 0 no effect, 100 complete control",30
same,Wheat (winter) plant response rating,"[8]; Rate 250 g/ha, 0 to 100 scale where 0 is no effect and 100 is complete control",40
same,"Plant response rating, Blackgrass",[9]; [20],10
same,"Plant response rating, Blackgrass",[9]; [21],20
same,Blackgrass plant response rating (0 to 100 scale),[9]; Rate 250 g/ha,50
same,"Plant response rating, Blackgrass",[9]; [28],50
same,"Plant response rating, Barley (winter)",[10]; [20],10
same,"Plant response rating, Barley (winter)",[10]; [21],20
same,Barley (winter) plant response rating (0 to 100 scale),[10]; Rate 250 g/ha,30
same,"Plant response rating, Barley (winter)",[10]; [28],30
same,"Plant response rating, Wild oat",[11]; [20],50
same,"Plant response rating, Wild oat",[11]; [21],50
same,Wild oat plant response rating (0 to 100 scale),[11]; Rate 250 g/ha,50
same,"Plant response rating, Wild oat",[11]; [28],60
